Reference: paper PMC7006677 (Pharmacological reports : PR, 2020)

Columns and labels:
Type in all cases: cell-based
[1] = target: T1, GABAA receptor (α1β3γ2L), β3 subunit (Homo sapiens, UniProt P14867+P18507+P28472); experiment: two-electrode voltage clamp
[2] = target: T1, GABAA receptor (α1β3γ2L), β3 subunit; experiment: two-electrode voltage clamp; remark: listed apart in the source
[3] = target: T1, GABAA receptor (α1β3γ2L), β3 subunit; experiment: two-electrode voltage clamp in oocytes

T1 sequence (P28472 26-473): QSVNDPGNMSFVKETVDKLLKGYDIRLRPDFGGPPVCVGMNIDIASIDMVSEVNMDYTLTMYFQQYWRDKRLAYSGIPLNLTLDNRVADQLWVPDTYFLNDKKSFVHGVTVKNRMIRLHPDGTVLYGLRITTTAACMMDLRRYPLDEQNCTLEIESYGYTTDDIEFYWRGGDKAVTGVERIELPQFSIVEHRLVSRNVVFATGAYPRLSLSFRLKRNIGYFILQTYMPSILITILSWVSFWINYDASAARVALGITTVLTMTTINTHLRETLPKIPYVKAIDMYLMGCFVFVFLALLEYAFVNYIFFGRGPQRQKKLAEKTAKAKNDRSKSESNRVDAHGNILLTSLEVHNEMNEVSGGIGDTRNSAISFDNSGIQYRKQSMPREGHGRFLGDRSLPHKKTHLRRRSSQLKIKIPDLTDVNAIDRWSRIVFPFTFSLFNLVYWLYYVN
T1 sequence (P14867 28-456): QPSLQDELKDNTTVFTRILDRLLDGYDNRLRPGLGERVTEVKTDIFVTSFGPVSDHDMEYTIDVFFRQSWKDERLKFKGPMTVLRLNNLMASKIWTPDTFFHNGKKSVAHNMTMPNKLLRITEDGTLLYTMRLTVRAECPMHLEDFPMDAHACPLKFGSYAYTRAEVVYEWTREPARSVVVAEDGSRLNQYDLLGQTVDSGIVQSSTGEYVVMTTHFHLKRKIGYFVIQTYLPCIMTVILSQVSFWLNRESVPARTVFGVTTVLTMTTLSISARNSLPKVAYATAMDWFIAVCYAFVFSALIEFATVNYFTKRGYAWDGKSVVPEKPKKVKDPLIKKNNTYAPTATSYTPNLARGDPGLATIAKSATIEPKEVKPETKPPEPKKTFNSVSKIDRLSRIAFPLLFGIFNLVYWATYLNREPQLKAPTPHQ
T1 sequence (P18507 40-475): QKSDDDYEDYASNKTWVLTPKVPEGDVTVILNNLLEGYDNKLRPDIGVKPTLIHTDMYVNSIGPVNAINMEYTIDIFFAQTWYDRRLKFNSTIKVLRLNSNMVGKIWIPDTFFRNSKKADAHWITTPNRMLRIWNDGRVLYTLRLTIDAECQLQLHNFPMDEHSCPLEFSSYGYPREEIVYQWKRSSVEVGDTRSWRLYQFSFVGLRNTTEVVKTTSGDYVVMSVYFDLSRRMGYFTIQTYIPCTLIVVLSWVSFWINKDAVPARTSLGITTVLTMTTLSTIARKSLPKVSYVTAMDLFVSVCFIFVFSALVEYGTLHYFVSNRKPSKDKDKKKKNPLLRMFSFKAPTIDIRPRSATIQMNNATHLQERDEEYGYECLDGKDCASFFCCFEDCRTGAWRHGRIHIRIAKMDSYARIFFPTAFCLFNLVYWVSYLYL

Compound | two-electrode voltage clamp; potentiation of EC5 GABA currents, reversed by naph [1] | further results
OCC(Cl)(Cl)Cl [2,2,2-Trichloroethanol] | ~ 2 mM | –
CCOC(=O)Nc1ccc(NCc2c(C)cc(C)cc2C)cc1N [AA29504] | ~ 1 μM | –
CC(=O)[C@H]1CC[C@H]2[C@@H]3CC[C@H]4C[C@H](O)CC[C@]4(C)[C@H]3C(=O)C[C@]12C [Alphaxalone] | ~ 2 μM | –
FC(F)OC(Cl)C(F)(F)F (stereo not shown) [Isoflurane] | ~ 1.5 mM | –
Cl/C(=C\n1cncn1)c1ccc(Cl)cc1Cl [Loreclezole] | ~ 10 μM | –
NCc1cc(=O)[nH]o1 [Muscimol] | – | two-electrode voltage clamp; potentiation of EC5 GABA currents, not reversed by [2]: ~ 3 μM
naphthalene-etomidate | – | IC50 [3]: 76 µM
